Assay results published in the NIST ThermoML archive (doi:10.1021/je2010038).

Tests used:
[1] = for mass density: Liquid, Vibrating tube method; for surface tension liquid-gas: Pendant drop shape
[2] = xn = mol fraction of the nth substance listed; details: x2 = 0; for surface tension liquid-gas: Pendant drop shape; for mass density: Liquid, Vibrating tube method

NCCO [2-aminoethan-1-ol]
[1]
Details | mass density [kg/m3]
298.15 K, 101 kPa | 1011.9
303.15 K, 101 kPa | 1008
308.15 K, 101 kPa | 1004
313.15 K, 101 kPa | 1000
318.15 K, 101 kPa | 996
323.15 K, 101 kPa | 992
328.15 K, 101 kPa | 988
333.15 K, 101 kPa | 983.9
338.15 K, 101 kPa | 979.8
343.15 K, 101 kPa | 975.8
348.15 K, 101 kPa | 971.6
353.15 K, 101 kPa | 967.5
358.15 K, 101 kPa | 963.4
363.15 K, 101 kPa | 959.2
373.1 K, 700 kPa | 950.9
383.15 K, 700 kPa | 942.3
393.15 K, 700 kPa | 933.5
403.15 K, 700 kPa | 924.7
413.15 K, 700 kPa | 915.7
423.15 K, 700 kPa | 906.4

[1]
Details | surface tension liquid-gas [mN/m]
303.15 K | 48.13
313.15 K | 46.66
323.15 K | 45.58
333.15 K | 44.63

O [water] + NCCO
[2]
Details | surface tension liquid-gas [mN/m]
303.15 K | 71.3
313.15 K | 69.55
323.15 K | 67.98
333.15 K | 66.16

[2]
Details | mass density [kg/m3]
323.15 K, 101 kPa | 988
328.15 K, 101 kPa | 985.7
333.15 K, 101 kPa | 983.2
338.15 K, 101 kPa | 980.5
343.15 K, 101 kPa | 977.7
348.15 K, 101 kPa | 974.8
353.15 K, 101 kPa | 971.8
358.15 K, 101 kPa | 968.6
363.15 K, 101 kPa | 965.3
373.1 K, 700 kPa | 958.6
383.15 K, 700 kPa | 951.2
393.15 K, 700 kPa | 943.4
403.15 K, 700 kPa | 935.1
413.15 K, 700 kPa | 926.3
423.15 K, 700 kPa | 917.1
